pIC50: −log10 of the molar value.
Target: Large T antigen (Simian virus 40) (UniProt P03070)
Experiment: SV40 large T antigen inhibitors, biochemical (AID 1903)
Settings: SV40 large T antigen ATPase/helicase inhibition assay

Chain of Large T antigen (Simian virus 40) (P03070 whole entry, looked up): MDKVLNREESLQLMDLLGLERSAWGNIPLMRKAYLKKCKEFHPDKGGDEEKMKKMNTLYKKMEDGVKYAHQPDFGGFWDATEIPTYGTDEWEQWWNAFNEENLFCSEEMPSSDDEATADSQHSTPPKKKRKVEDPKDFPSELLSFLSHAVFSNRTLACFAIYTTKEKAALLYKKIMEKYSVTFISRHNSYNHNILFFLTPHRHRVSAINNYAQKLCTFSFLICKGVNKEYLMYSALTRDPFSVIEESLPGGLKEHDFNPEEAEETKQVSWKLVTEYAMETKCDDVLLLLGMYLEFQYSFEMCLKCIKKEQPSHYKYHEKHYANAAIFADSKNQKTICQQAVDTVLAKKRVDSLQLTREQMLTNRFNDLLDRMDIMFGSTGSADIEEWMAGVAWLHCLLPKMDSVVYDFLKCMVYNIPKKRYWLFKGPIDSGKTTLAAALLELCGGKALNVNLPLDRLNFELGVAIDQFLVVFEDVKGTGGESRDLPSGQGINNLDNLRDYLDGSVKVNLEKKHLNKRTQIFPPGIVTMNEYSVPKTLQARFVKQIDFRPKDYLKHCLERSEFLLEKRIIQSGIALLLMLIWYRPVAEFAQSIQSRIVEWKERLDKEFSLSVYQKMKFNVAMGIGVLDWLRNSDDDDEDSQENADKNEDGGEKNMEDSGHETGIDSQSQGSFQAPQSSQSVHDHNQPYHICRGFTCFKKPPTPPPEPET

Row | SMILES | pIC50
1 | C#CCOCCOCCOCCNc1nc(N2CCN(C(=O)CCCCCCCCCCNC(=O)[C@H]([C@@H](C)CC)n3cc(CCCCN=C(N)N)nn3)CC2)nc(N2CCN(C(=O)CCCCCCCCCCNC(=O)[C@H]([C@@H](C)CC)n3cc(CCCCN=C(N)N)nn3)CC2)n1 | 5.29
2 | O=C(O)CCC1c2cc3c4cc2OC2Oc5cc6c(cc51)C(CCC(=O)O)c1cc5c7cc1OC(O6)c1cc6cc(c1)Oc1cc(cc(C(=O)O)c1)Oc1cc8cc(c1)C(Oc1cc(c(cc1C5CCC(=O)O)C3CCC(=O)O)OC(O4)c1cc(cc(c1)Oc1cc(cc(C(=O)O)c1)O8)Oc1cc(cc(C(=O)O)c1)Oc1cc(cc2c1)Oc1cc(cc(C(=O)O)c1)O6)O7 (centres undefined) | > 6.41
3 | C#CCOCCOCCOCCNc1nc(N2CCN(C(=O)CCCCCCCCCCNC(=O)[C@H]([C@@H](C)CC)n3cc(CCCCN=C(N)N)nn3)CC2)nc(N2CCN(C(=O)CCCCCCCCCCNC(=O)[C@H](CCCN=C(N)N)n3cc(C[C@@H](C)CC)nn3)CC2)n1 | 4.99
4 | C[CH2][Hg][S]c1ccccc1C(=O)O | 4.49
5 | C#CCOCCOCCOCCNc1nc(N2CCN(C(=O)CCCCCCCCCCNC(=O)[C@H](CCCN=C(N)N)n3cc(C[C@@H](C)CC)nn3)CC2)nc(N2CCN(C(=O)CCCCCCCCCCNC(=O)[C@@H]([C@H](C)CC)n3cc(CCCCCN)nn3)CC2)n1 | 4.73
6 | CCCCC1(C)OC(=O)C(=Cc2ccc(-c3ccc(Cl)c(C(=O)O)c3)o2)C(=O)O1 (centres undefined) | 4.76
7 | C[c-]1[c-](C)[c-](C)[c-](C)[c-]1C.[Fe].c1cc2nccc(N3CCCC3)[c-]2c1 (centres undefined) | 4.76
8 | C#CCOCCOCCOCCNc1nc(N2CCN(C(=O)CCCCCCCCCCNC(=O)[C@H]([C@@H](C)CC)n3cc(CCCCN=C(N)N)nn3)CC2)nc(N2CCN(C(=O)CCCCCCCCCCNC(=O)[C@H](CCCCN)n3cc(C[C@@H](C)CC)nn3)CC2)n1 | 4.88
9 | O=C(O)c1cc[c]([Hg][Cl])cc1 | 5.90

From PubChem BioAssay AID1903 (Southern Research Specialized Biocontainment Screening …, 2009)
